Assay results published in patent US6610716B2, “Cyanomethyl substituted thiazoliums and imidazoliums and treatments of disorders associated with protein aging” (Alteon Incorporated, priority 2000, dated 2003).
Counter-ions that a name gives are not always drawn. Values belong to the molecule of their own block, whether it stands above or below them.

Columns and labels:
[1] = Phase Ia clinical trial; assay type: in vivo, human
Excerpt: When the heart pumps blood into the vascular system, the ability of the arteries to expand helps to push blood through the body. When arteries become stiff, as they do in the natural process of aging. the ability of the arteries to expand is diminished and also has consequences for the heart. The heart has to work harder to pump the blood into the stiff arteries, and eventually hypertrophies (enlarges in size) to accomplish this. A hypertrophied heart is an inefficient pump, and is one of the disorders that leads to congestive heart failure. […] The potential clinical benefit of this is to lessen the effort that the heart must expend to push blood throughout the body. The effect is also believed to contribute to preventing hypertrophy and subsequent inefficiency of the heart, which inefficiency would contribute to congestive heart failure.
Atherosclerosis is a disease that involves deposition of blood lipids in plaque in the arteries throughout the body. In coronary arteries, accumulation of plaque progressively leads to reduced coronary flow, with occlusion of the arteries causing focal death of cardiac tissue (myocardial infarction, heart attack). If the amount of tissue that dies is large enough, death ensures. In a Phase Ia trial, one compound believed to work by a mechanism shared by the compounds of the invention, 3-[2-phenyl-2-oxoethyl]-4,5-dimethyl-thiazolium salt, […] the amount of circulating triglycerides (lipids). […] Reducing local deposits of plaque should eventually lessen the risk of myocardial infarction and death due to heart attacks.
Pulse pressure is the difference between systolic and diastolic blood pressure. In a young human, systolic pressure is typically 120 mm Hg and diastolic pressure is 80 mm Hg, resulting in a pulse pressure of 40 mm Hg. With age, in many individuals pulse pressure increases, largely due to the increase in systolic pressure that results from stiff vessel disease. In individuals with pulse pressure greater than 60 mm Hg there is an increased risk of death from cardiovascular morbidities.

[2] = Dog model for diabetes, indicators of ventricular elasticity; assay type: in vivo
Excerpt: (§1) Cardiovascular risk correlates more closely with the systolic and the pulse pressure than with the diastolic pressure. In diabetic patients, the cardiovascular risk profile of diabetic patients is strongly correlated to duration of diabetes, glycemic control and blood pressure. Structural matrix proteins contribute to the function of vessels and the heart, and changes in the physical behavior of cardiovascular walls are believed to be important determinants of circulatory function. In elderly individuals, the loss of compliance in the aorta leads to isolated systolic hypertension, which in turn expands the arterial wall and thereby diminishes the dynamic range of elasticity. […] Treatment with 3-[2-phenyl-2-oxoethyl]-4,5-dimethyl-thiazolium salt lead to a reduction in the mass of collagen in cardiovascular tissues.

[3] = In vivo studies of vascular stiffening and cardiovascular collagen; parameters: species or system rodents, canines and primates
Excerpt: as §1

[4] = tested on: TGFbeta; assay: In situ hybridization studies; assay type: in vivo
Excerpt: as §1

[5] = tested on: Type IV collagen; assay: In situ hybridization studies; assay type: in vivo
Excerpt: as §1

[6] = diabetic rats; cited from earlier work
[7] = in vivo; cited from earlier work
[8] = streptozotocin-diabetic rat model; cited from earlier work
[9] = tested on: red blood cells; conditions: in vivo; cited from earlier work
[10] = use of chlorhexidine; cited from earlier work

melting point: 184 to 186 °C (dec.)
SMILES: Cc1sc[n+](CC#N)c1C.[Br-]

melting point: 215 to 217 °C (dec.)
SMILES: N#CC[n+]1csc2c1CCCC2.[Br-]

SMILES: Cc1sc[n+](CC(=O)c2ccccc2)c1C [3-[2-phenyl-2-oxoethyl]-4,5-dimethyl-thiazolium salt]
stiffness of arteries, as measured by the ratio of stroke volume (ml) to pulse pressure (mm Hg) ([1]; Phase Ia clinical trial): reverse the stiffness of arteries | amount of circulating triglycerides (lipids) ([1]; Phase Ia trial): increased | systolic blood pressure ([1]; Phase Ia trial, believed primary cause of the pulse pressure decrease): lowering the systolic blood pressure | pulse pressure ([1]; Phase Ia trial, elderly patients with pulse pressures greater than 60 mm Hg, statistically significant): reduced pulse pressure | end diastolic pressure [2]: returned to a value at about the mid-point between the disease impaired value and the value for control dogs | end diastolic volume [2]: returned to a value at about the mid-point between the disease impaired value and the value for control dogs | mass of collagen in cardiovascular tissues ([3]; in vivo): reduction | vascular stiffening ([3]; in vivo studies in rodents, canines and primates): substantially ameliorating vascular stiffening | expression of TGFbeta [4]: reduces the expression | expression of Type IV collagen [5]: reduces the expression

SMILES: N=C(N)NN [aminoguanidine]
aortic wall protein cross-linking [6]: diminishes | immunoglobulin trapping in the kidney [7]: reduction | increased glomerular basement membrane thickness [8]: prevented | diabetes-induced changes in the deformability of red blood cells [9]: prevent, treat or reverse such changes

SMILES: [H]/N=C(\N/C(=N/[H])NCCCCCCNC(=N)NC(=N)Nc1ccc(Cl)cc1)Nc1ccc(Cl)cc1 [chlorhexidine]
dental pellicle [10]: increased dental pellicle
